Where two headings read alike, the source gives them in different places.
What was measured:
[1] = test system: L. infantum MHOM/TN/80/IPT1 promastigotes; experiment: L. infantum promastigotes viability assay (MTS); format: cell-based, Leishmania infantum; conditions: Leishmania infantum, 72 h; for inhibition at 20 µM: single dose 20 µM
Protocol: (§1) Finally, eighteen compounds were first screened for efficacy against L. infantum MHOM/TN/80/IPT1 promastigotes at a single dose of 20 µM for 72 hours.
(§2) L. infantum MHOM/TN/80/IPT1 (WHO international reference strain) was purchased from ATCC (ATCC® 50134™) and was cultured in Evans's Modified Tobie Medium (EMTM) at 26–28 °C. To test the compounds, parasites were resuspended in RPMI-PY medium as described previously. The human monocytic cell line THP-1 (ECACC 88081201) was cultured in RPMI-1640 medium supplemented with 10% heat-inactivated Fetal Bovine Serum (FBS), 100 μg/ml streptomycin, […] and maintained in a humidified incubator at 37 °C and 5% CO2. All the cell culture reagents were purchased from Sigma-Aldrich (St. Louis, MO, USA).
Late log/stationary phase L. infantum promastigotes were resuspended in RPMI-PY medium at a density of 2.5×10^6 parasites/mL in 96-well plates (100μL/well). The anti-parasitic activity of the eighteen compounds of the library was initially investigated at a single dose of 20 μM for 72 h at 26 °C. […] Not treated parasites were included as negative control. As positive control, the anti-leishmanial drug miltefosine (Sigma-Aldrich, Milan, Italy) was used. Each condition was carried out in duplicate. To evaluate the promastigotes viability, the CellTiter 96H Aqueous Non-Radioactive Cell Proliferation Assay (Promega), based on the ability of viable cells to convert a soluble tetrazolium salt [3-(4.5-dimethylthiazol-2-yl)-5-(3-carboxymethoxy-phenyl)-2-(4-sulfophenyl)-2H-tetrazolium. MTS] to a formazan product, was performed. To this end, 20 μL of MTS/PMS (phenazinemethosulfate, Sigma-Aldrich) was added to 100 μL of culture medium and incubated at 26°C until formazan production. Absorbance was recorded on a Microplate Reader (Infinite® F50 Plus, Tecan) at 492 nm. The IC50 values were calculated using nonlinear regression curves in GraphPad Prism 8.0 (GraphPad Software,Inc., San Diego, CA). The equation used for data fitting was Y= 100/(1 + 10∧((Log IC50 −X)*HillSlope)) (hillslope not constrained), where X is the log of concentration and Y is the normalized response. […]

THP-1 cells = experiment: Evaluation of cytotoxicity on THP-1 cells (MTS); format: cell-based, human; conditions: for Cytotoxicity on THP‐1 (100, 20, 4 µM) (%): 72 h, PMA-differentiated THP-1
Protocol: as §1, §2
(§3) The cytotoxicity of the compounds was assessed on THP-1 cells seeded at a density of 5 × 10^5 cells per mL, 100μL/well in a 96-well plate and treated for 72 h with 20 ng/mL phorbol myristic acid (PMA) to induce differentiation into macrophages like cells. After cell adhesion to the plate, each molecule was tested at 4, 20 and 100 μM for 72 h at 37 °C.
(§4) Three selected compounds were further evaluated at different concentration, obtained from scalar dilutions 1:2 (from 100 µM to 3.12 μM) for 72 h at 37°C. The negative control (untreated THP-1 cells) and the positive control (miltefosine) were included in each experiment. Each condition was carried out in duplicate. To evaluate the compounds cytotoxicity, the CellTiter 96H Aqueous Non-Radioactive Cell Proliferation Assay (Promega), was used as described before. […]

[2] = Evaluation of cytotoxicity on THP-1 cells (MTS); format: cell-based, human; conditions: human, 72 h
Protocol: as §1, §2, §3, §4

[3] = roughly determined from 100, 20 and 4 µM, read-out: CC50 interval on THP-1 cells

Row | SMILES | inhibition at 20 µM [1] | Cytotoxicity on THP‐1 (100, 20, 4 µM) (%) (THP-1 cells; 4 µM) | Cytotoxicity on THP‐1 (100, 20, 4 µM) (%) (THP-1 cells; 20 µM) | Cytotoxicity on THP‐1 (100, 20, 4 µM) (%) (THP-1 cells; 100 µM) | CC50 at 72 h [2, 3] | IC50 ([1]; scalar dilutions 2:3 from 20 to 1.17 µM, mean (95% CI)) | SI (Selectivity index = CC50/IC50) (THP-1 cells; CC50 THP-1 (72 h) / IC50 L. infantum promastigotes (72 h)) | CC50 at 72 h ([2]; scalar dilutions 1:2 from 100 to 3.12 µM, mean (95% CI), read-out: THP‐1 CC50 (µM) (95% CI))
1 | NCC(c1c[nH]c2cc(-c3ccccc3)ccc12)c1c[nH]c2cc(-c3ccccc3)ccc12 [3aa, 2,2-bis(6-phenyl-1H-indol-3-yl)ethan-1-amine] | 96.2% | −18% | 97% | 87% |  |  |  | 
2 | NCC(c1c[nH]c2cc(-c3ccc(F)cc3)ccc12)c1c[nH]c2cc(-c3ccc(F)cc3)ccc12 [3ab, 2,2-bis(6-(4-fluorophenyl)-1H-indol-3-yl)ethan-1-amine] | 97.1% | −33% | 97% | 85% |  |  |  | 
3 | CC(C)Cc1ccc(-c2ccc3c(C(CN)c4c[nH]c5cc(-c6ccc(CC(C)C)cc6)ccc45)c[nH]c3c2)cc1 [3ac, 2,2-bis(6-(4-isobutylphenyl)-1H-indol-3-yl)ethan-1-amine] | ≤ 51.4% | −17% | 1% | 88% | 20 to 100 µM |  |  | 
4 | COc1ccc(-c2ccc3c(C(CN)c4c[nH]c5cc(-c6ccc(OC)cc6)ccc45)c[nH]c3c2)cc1 [3ad, 2,2-bis(6-(4-methoxyphenyl)-1H-indol-3-yl)ethan-1-amine] | 95.1% | −12% | 96% | 86% |  |  |  | 
5 | NCC(c1c[nH]c2cc(-c3cccc(Cl)c3)ccc12)c1c[nH]c2cc(-c3cccc(Cl)c3)ccc12 [3ag, 2,2-bis(6-(3-chlorophenyl)-1H-indol-3-yl)ethan-1-amine] | 93.6% | −7% | 97% | 84% |  |  |  | 
6 | NCC(c1c[nH]c2cc(-c3cccc(-c4ccccc4)c3)ccc12)c1c[nH]c2cc(-c3cccc(-c4ccccc4)c3)ccc12 [3ah, 2,2-bis(6-([1,1'-biphenyl]-3-yl)-1H-indol-3-yl)ethan-1-amine] |  | −20% | 32% | 77% | 20 to 100 µM |  |  | 
7 | NCC(c1c[nH]c2cc(-c3cccc(OCc4ccccc4)c3)ccc12)c1c[nH]c2cc(-c3cccc(OCc4ccccc4)c3)ccc12 [3ai, 2,2-bis(6-(3-(benzyloxy)phenyl)-1H-indol-3-yl)ethan-1-amine] |  | 1% | 90% | 72% |  |  |  | 
8 | COc1cccc(-c2ccc3c(C(CN)c4c[nH]c5cc(-c6cccc(OC)c6)ccc45)c[nH]c3c2)c1 [3aj, 2,2-bis(6-(3-methoxyphenyl)-1H-indol-3-yl)ethan-1-amine] | 96.5% | 2% | 97% | 85% |  |  |  | 
9 | COc1ccccc1-c1ccc2c(C(CN)c3c[nH]c4cc(-c5ccccc5OC)ccc34)c[nH]c2c1 [3ak, 2,2-bis(6-(2-methoxyphenyl)-1H-indol-3-yl)ethan-1-amine] | 96.5% | −4% | 97% | 86% |  |  |  | 
10 | COc1cccc(OC)c1-c1ccc2c(C(CN)c3c[nH]c4cc(-c5c(OC)cccc5OC)ccc34)c[nH]c2c1 [3al, 2,2-bis(6-(2,6-dimethoxyphenyl)-1H-indol-3-yl)ethan-1-amine] | ≤ 51.4% | −5% | 47% | 84% | 20 to 100 µM |  |  | 
11 | NCC(c1c[nH]c2cc(-c3cccc4ccccc34)ccc12)c1c[nH]c2cc(-c3cccc4ccccc34)ccc12 [3an, 2,2-bis(6-(naphthalen-1-yl)-1H-indol-3-yl)ethan-1-amine] | 97.8% | −15% | 95% | 79% |  |  |  | 
12 | NCC(c1c[nH]c2cc(-c3ccc4ccccc4c3)ccc12)c1c[nH]c2cc(-c3ccc4ccccc4c3)ccc12 [3ao, 2,2-bis(6-(naphthalen-2-yl)-1H-indol-3-yl)ethan-1-amine] | 95.1% | −13% | 94% | 76% |  |  |  | 
13 | CC(C)(C)OC(=O)n1cccc1-c1ccc2c(C(CN)c3c[nH]c4cc(-c5cccn5C(=O)OC(C)(C)C)ccc34)c[nH]c2c1 [3ap, di-tert-butyl 2,2'-((2-aminoethane-1,1-diyl)bis(1H-indole-3,6-diyl))bis(1H-pyrrole-1-carboxylate)] | 92.6% | 22% | 97% | 85% |  |  |  | 
14 | NCC(c1c[nH]c2cc(/C=C/c3ccc(Cl)cc3)ccc12)c1c[nH]c2cc(/C=C/c3ccc(Cl)cc3)ccc12 [3ar, 2,2-bis(6-((E)-4-chlorostyryl)-1H-indol-3-yl)ethan-1-amine] | 95.1% | −32% | 95% | 66% |  |  |  | 
15 | NCC(c1c[nH]c2ccc(-c3ccccc3)cc12)c1c[nH]c2ccc(-c3ccccc3)cc12 [3ba, 2,2-bis(5-phenyl-1H-indol-3-yl)ethan-1-amine] | 96.8% | −22% | 98% | 91% |  |  |  | 
16 | CCCCCCCCCCCCCCCCOP(=O)([O-])OCC[N+](C)(C)C [Milt, miltefosine, reference compound] | 98.5% | −35% | 6% | 99% |  | 3.7 µM | 9.8 | 36.6 µM
